Reference: ChEMBL document CHEMBL1201862, “PubChem BioAssay data set” (2004)
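Method: 48-hour compound exposure of cells in 96-well plates, five concentrations, linear interpolation of endpoints. At the GI50, growth is halved.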 Active and inactive are the calls of the source. Rule as the data show it: active = GI50 up to about 1.1 µM and inactive = higher.

Experiments:
Assay in all cases: inhibition of tumour cell growth, NCI panel, 48 h
SF-539 = tested on: SF-539
SK-MEL-28 = tested on: SK-MEL-28
KM12 = tested on: KM12
RPMI-8226 = tested on: RPMI-8226
HOP-62 = tested on: HOP-62
SK-MEL-2 = tested on: SK-MEL-2
HT-29 = tested on: HT-29
U-251 = tested on: U-251
SK-OV-3 = tested on: SK-OV-3
NCI/ADR-RES = tested on: NCI/ADR-RES
OVCAR-4 = tested on: OVCAR-4
SF-295 = tested on: SF-295
CAKI-1 = tested on: CAKI-1
COLO 205 = tested on: COLO 205
OVCAR-8 = tested on: OVCAR-8
IGROV-1 = tested on: IGROV-1
UO-31 = tested on: UO-31
HCC 2998 = tested on: HCC 2998
CCRF-CEM = tested on: CCRF-CEM
NCI-H226 = tested on: NCI-H226

| Compound | GI50 (SF-539) | GI50 (SK-MEL-28) | GI50 (KM12) | GI50 (RPMI-8226) | GI50 (HOP-62) | GI50 (SK-MEL-2) | GI50 (HT-29) | GI50 (U-251) | GI50 (SK-OV-3) | GI50 (NCI/ADR-RES) | GI50 (OVCAR-4) | GI50 (SF-295) | GI50 (CAKI-1) | GI50 (COLO 205) | GI50 (OVCAR-8) | GI50 (IGROV-1) | GI50 (UO-31) | GI50 (HCC 2998) | GI50 (CCRF-CEM) | GI50 (NCI-H226) |
| --- | --- | --- | --- | --- | --- | --- | --- | --- | --- | --- | --- | --- | --- | --- | --- | --- | --- | --- | --- | --- |
| OC(c1cccnc1Cl)c1nc2ccccc2c2ccnc(Cl)c12 (stereo not given) | 3.02 µM (inactive) | 23.7 µM (inactive) | 2.94 µM (inactive) | 2.34 µM (inactive) | 2.15 µM (inactive) | 4.94 µM (inactive) | 4.6 µM (inactive) | 4.18 µM (inactive) | 8.38 µM (inactive) | 2.88 µM (inactive) | 27.5 µM (inactive) | 2.52 µM (inactive) | 6.25 µM (inactive) | 3.38 µM (inactive) | 9.12 µM (inactive) | 5.02 µM (inactive) | 8.87 µM (inactive) | – | – | – |
| COc1cc(C2S/C(=C/c3ccccc3)C(=O)N2c2cccc(NC(C)=O)c2)cc(OC)c1OC (stereo not given) | – | 90.2 µM (inactive) | 27.2 µM (inactive) | – | 67 µM (inactive) | – | 21.1 µM (inactive) | 17.6 µM (inactive) | 56 µM (inactive) | 27.9 µM (inactive) | 24.4 µM (inactive) | 40.5 µM (inactive) | 25.9 µM (inactive) | 27.3 µM (inactive) | 29.9 µM (inactive) | – | 36.6 µM (inactive) | 29.6 µM (inactive) | 40.2 µM (inactive) | > 100 µM (inactive) |
| O=C(O)C1=C(CO)Oc2cc3c(cc2C1c1ccc2c(c1)OCO2)OCO3 (stereo not given) | > 100 µM (inactive) | > 100 µM (inactive) | – | > 100 µM (inactive) | > 100 µM (inactive) | > 100 µM (inactive) | > 100 µM (inactive) | > 100 µM (inactive) | > 100 µM (inactive) | – | > 100 µM (inactive) | > 100 µM (inactive) | > 100 µM (inactive) | > 100 µM (inactive) | > 100 µM (inactive) | > 100 µM (inactive) | > 100 µM (inactive) | – | > 100 µM (inactive) | – |
| O=C(Nc1ccc(Cl)cc1)C(=O)C(C(=O)c1ccccc1-c1ccccc1)C1OC(=O)c2ccccc21 (stereo not given) | 22.5 µM (inactive) | 18.4 µM (inactive) | 17.3 µM (inactive) | 26.9 µM (inactive) | 26.4 µM (inactive) | 20.8 µM (inactive) | 23.1 µM (inactive) | 14 µM (inactive) | 27.6 µM (inactive) | – | 35.5 µM (inactive) | 26.9 µM (inactive) | 24 µM (inactive) | 21.7 µM (inactive) | 15.5 µM (inactive) | 29.1 µM (inactive) | 19.4 µM (inactive) | 19.4 µM (inactive) | 18.2 µM (inactive) | 6.34 µM (inactive) |
| O=C(N/C=C1\C(=O)Oc2ccccc2C1=O)NC1CCCCC1 | > 100 µM (inactive) | 46.7 µM (inactive) | – | > 100 µM (inactive) | 68.4 µM (inactive) | 24.2 µM (inactive) | > 100 µM (inactive) | – | – | – | 77.8 µM (inactive) | – | – | > 100 µM (inactive) | > 100 µM (inactive) | 56.5 µM (inactive) | 21.3 µM (inactive) | > 100 µM (inactive) | – | 41.1 µM (inactive) |
| C=C1C(=O)OC2/C=C(\C(=O)O)CC/C=C(\C)CC(OC(=O)/C=C(\C)CC)C12 (stereo not given) | 15.7 µM (inactive) | 18.8 µM (inactive) | 14.4 µM (inactive) | 3.45 µM (inactive) | 20.1 µM (inactive) | 14.4 µM (inactive) | 15.7 µM (inactive) | 17 µM (inactive) | 20.3 µM (inactive) | – | 16.9 µM (inactive) | 17.3 µM (inactive) | 19.3 µM (inactive) | 17 µM (inactive) | 17.2 µM (inactive) | 19.4 µM (inactive) | 19.9 µM (inactive) | 18.6 µM (inactive) | > 100 µM (inactive) | 17.9 µM (inactive) |
| COc1cc(O)c2c(c1)C(=O)c1cc3c(c(O)c1C2=O)C(OC1OC(C)C(O)C(O)C1OC)C(OC)C(C)(O)C3=O (stereo not given) | 1.85 µM (inactive) | – | – | – | 3.82 µM (inactive) | 3.65 µM (inactive) | 1.17 µM (inactive) | 3.39 µM (inactive) | 3.2 µM (inactive) | 3.48 µM (inactive) | 0.476 µM (active) | 1.82 µM (inactive) | – | 0.76 µM (active) | – | 2.52 µM (inactive) | 2.09 µM (inactive) | 4.23 µM (inactive) | – | 3.48 µM (inactive) |
| CCOP(=O)(COCCn1nc(Br)c(=O)[nH]c1=O)OCC | > 100 µM (inactive) | > 100 µM (inactive) | > 100 µM (inactive) | > 100 µM (inactive) | > 100 µM (inactive) | > 100 µM (inactive) | – | > 100 µM (inactive) | – | > 100 µM (inactive) | – | – | > 100 µM (inactive) | > 100 µM (inactive) | > 100 µM (inactive) | > 100 µM (inactive) | > 100 µM (inactive) | > 100 µM (inactive) | > 100 µM (inactive) | > 100 µM (inactive) |
